These results are taken from patent US20210386754A1, “COMPOSITIONS AND METHODS FOR TREATING ATHEROSCLEROTIC VASCULAR DISEASE” (AUGUSTA UNIVERSITY RESEARCH INSTITUTE, INC., priority 2020, published 2021).

Entries after “also recorded” stand apart in the source; their conditions may differ.

One series concerns THP-1 macrophages. Description: Foam cell formation / nLDL macropinocytosis, Nile Red FACS. The series is classed as cell-based, human. Conditions: EIPA 25 μM, 1 hr pre-incubation; nLDL 50 μg/ml. As for the experimental part:
Flow cytometry experiments were performed using the BD Accuri C6 flow cytometer using a standard protocol.
Foam cell formation: THP-1 macrophages or bone marrow-derived macrophages were treated with vehicle, known macropinocytosis stimulators (PMA 1 μM, M-CSF 100 ng/mL or PDGF 200 ng/mL)+/− macropinocytosis inhibitors (imipramine 10 μM or EIPA 25 μM; 1 hour pre-incubation) in the presence of nLDL, ox-LDL, or ac-LDL ([…]) for 24 hours. Cells were fixed in 2% PFA and stained with Nile Red (50 ng/mL) for 7 min. Fluorescence intensity was measured using the FL3 channel for Nile Red (Ex: 488 nm, Em: 670 nm).

In series [1] the test system is hypercholesterolemic mice (PCSK9-AAV-mediated LDLR knockdown). Description: Atherosclerosis model: PCSK9-AAV, partial LCA ligation, Western diet. It counts as in vivo, mouse. Conditions: for inhibition of atherosclerotic lesion area (ORO positive area, LCA): continuous infusion via subcutaneous osmotic pump. An excerpt: Mice were given a single injection of AAV-PCSK9 (1×1011 VG) and fed a Western diet (Envigo, TD.88137, Indianapolis, Ind.). One week after AAV-PCSK9 injection, mice underwent partial carotid ligation surgery as previously described (67) and Western diet was continued for another 3 weeks. In separate experiments, mice were given a single injection of AAV-PCSK9 (1×1011 VG) and fed a Western diet for 16 weeks. Mice were anesthetized (isoflurane inhalation, 3%) and exsanguinated. Blood was collected from left ventricle using a heparinized syringe fitted with a 21 G needle. Aortic arch and carotid arteries were collected, and gross macroscopic images were acquired. For molecular histology studies, carotids and aortic arch were fixed in 4% paraformaldehyde (PFA), embedded in OCT compound and stored at −80° C. until use.
ORO staining: Atherosclerosis development in carotid arteries and whole aorta were studied initially by gross imaging followed by Oil Red O (ORO) staining and plaque quantification. Briefly, the entire aorta was isolated, cleaned of peri-adventitial fat, fixed and imaged on the surface of black silicone-coated dissection dishes. Left carotid arteries were embedded in OCT and 10 μm thick cross-sections were prepared. The arteries were divided into 3 regions based on their distance from the aortic arch: proximal (0-400 μm), middle (2,000-2,400 μm) and distal (4,000-4,400 μm). Frozen sections and whole aortas were then stained with ORO solution (2%) and images were taken using light microscope equipped with a camera under 20× and 1.6× objective lens. The total area, lumen area and ORO positive area were measured for six sections/anatomical position per mouse using Image J software. The ratio of ORO positive area to arterial area is represented as plaque area. Plasma total cholesterol concentrations were determined by the Amplex™ Red Cholesterol Assay Kit (ThermoFisher, Rockford, Ill.). Plasma lipid profiles were obtained by column fractionation and measurements of fraction cholesterol content.
Hematoxylin and Eosin (H&E) or Masson's trichrome staining: Frozen sections were also used for Hematoxylin and Eosin (H&E) or Masson's trichrome staining following standard procedures to evaluate the lesion size and collagen content, respectively.
Orcein and Martius Scarlet Blue (OMSB) staining: OMSB was used for qualitative and quantitative analysis of atherosclerotic plaques as previously described. Briefly, left carotid arteries were dissected out, fixed in 4% buffered paraformaldehyde (pH=7.4) for at least 48 hr, and then routinely processed and embedded in paraffin (tissue processor TP1020; Leica, Wetzlar, Germany). Cross sections were cut every 5 m along the artery (starting from the proximal end) and mounted serially on silanized slides. Sections were stained and mounted automatically using Leica ST5010 Autostainer XL combined with Leica CV5030 Glass Coverslip. Deparaffinized sections through xylene and ethanol, and rehydrate to water. Postfix sections in Bouin's fixative at 56° C. for 1 hour, then rinse for 10 min in tap water to remove traces of picric acid. Stain with orcein for 20 min at 56° C. Differentiate in acidic alcohol for 2 min and then transfer to 96% ethanol for 30 s. Stain with martius yellow for 3 min and rinse in distilled water (2×2 min). Stain with crystal scarlet for 10 min. Differentiate with phosphotungstic acid 2 min and transfer to distilled water (for about 10 s). Stain with methyl blue 5 min. Rinse in acetic acid water 3 min, dehydrate through ethanol and carbol-xylene, clear in xylene, and mount in DPX or other resin. Staining of collagen with picrosirius red. The sections were examined and digital images of stained arteries were recorded using Olympus dotSlide system (Olympus, Tokyo, Japan). Segmentation algorithm allowed to distinguish vessel wall area, lumen area, plaque area, and area of the plaque occupied by collagen. The results were presented as areas of identified components in μm2. […]

Series [2] relates to THP-1 monocytes on human aortic endothelial cells. Nature of the series: Monocyte adhesion assay. The series is classed as cell-based. The conditions noted are these: EIPA 25 μM; HAEC TNFα 10 ng/ml, 4 hr. As for the experimental part:
Adhesion studies were performed using the human monocyte cell line THP-1. Vehicle- or EIPA (25 μM, 24 hours)-treated THP-1 monocytes were labeled using Vybrant™ CFDA SE Cell Tracer Kit (ThermoFisher). Human aortic endothelial cell monolayers grown on coverslips in a 24-well plate were treated with vehicle (PBS) or TNFα (10 ng/ml) for 4 hours. Endothelial cells were labeled with Cell Tracker™ Deep Red Dye (ThermoFisher). Fifty microliter of THP-1 monocyte suspension containing 1×10^6 cells was added to each well of endothelial cells, and the plates were gently agitated and placed in a cell culture incubator for 1 hour. At the end of the incubation period, the monolayer was gently washed three times with cold PBS. After the final wash, coverslips were stained with Hoechst 33342 (ThermoFisher) and mounted onto slides using mounting medium. Fluorescent signals were detected using a Zeiss 780 upright confocal microscopy. Quantification was completed with Image-Pro Plus software (Media Cybemetics, Bethesda, Md., USA).

A further series deals with ApoE-/- mice. Nature of the series: Atherosclerosis model: ApoE-/- mice, partial LCA ligation, Western diet. It counts as in vivo, mouse. Conditions: male ApoE-/- mice, Western diet 4 weeks, EIPA via subcutaneously implanted minipump.
The subject of series [3] is F4/80+ macrophages of atherosclerotic ApoE-/- aorta. Nature of the series: In vivo DiI-nLDL uptake by macrophages of atherosclerotic arteries. On the set-up: species or system mouse. The conditions noted are these: EIPA 25 mg/kg/day, i.p. for 3 days; DiI-nLDL 100 μg retro-orbitally; 12 weeks Western diet. As for the experimental part:
Isolation of macrophages from atherosclerotic arteries: 8-10-week-old ApoE^−/− mice were fed a Western diet for 12 weeks. Mice were treated with vehicle or EIPA (25 mg/kg/day, i.p.) for 3 days. On the day of sacrifice, mice were retro-orbitally injected with vehicle or 100 μg Dil-nLDL. After 4 hours, mice were anaesthetized and perfused with ice-cold PBS for 5 min and the entire thoracic aorta with LCA was isolated. Following removal of the adventitia, macrophages were isolated using the Neonatal Heart Dissociation Kit (Miltenyi Biotech.) and CD11b microbeads (Miltenyi Biotech.). Cells were stained with anti-F4/80-APC (clone BM8) or IgG control antibodies (Biolegend). Dil fluorescence was measured in F4/80-positive macrophages [Dil (Ex: 549 nm, Em: 565 nm) and APC (Ex: 640 nm, Em: 670 nm)].

Where [4] appears, read: EIPA vs vehicle, WT and CD36-/-/SR-A-/- mice.
The mark [5] stands for this setting: EIPA vs vehicle, WT and CD36-/-/SR-A-/- mice, LCA.

For the compound `CCN(c1nc(N)c(C(=O)N=C(N)N)nc1Cl)C(C)C` [EIPA, 5-(N-ethyl-N-isopropyl)amiloride], in the series with THP-1 macrophages, the “PMA-induced nLDL macropinocytosis” value is “blocks macrophage macropinocytosis; also recorded: inhibits”. Further, in series [1] (setting [4]), the “blood pressure (systolic)” value is reported as “not different” and the body weight entry is “not different”. Besides, in series [1] (setting [5]), the “CD68+ macrophage staining” value is “significantly decreased”, the “Collagen content (Masson's trichrome)” value is “significantly decreased” and the “atherosclerotic lesion area (H&E)” value is “significantly decreased”. Moreover, in series [1] (female WT mice, PCSK9-AAV (LDLR-deficient), Western diet 4 weeks, EIPA via subcutaneously implanted minipump), the “atherosclerosis (plaque area, OMSB, LCA)” value is recorded as “inhibited atherosclerosis; also recorded: attenuates”. Besides, the “inhibition of atherosclerotic lesion area (ORO positive area, LCA)” value in series [1] (male CD36-/-/SR-A-/- mice, Western diet 4 weeks) is listed as approximately 80%. Further, the “inhibition of atherosclerotic lesion area (ORO positive area, LCA)” value in series [1] (male WT mice, Western diet 4 weeks) was approximately 80%. Moreover, the atherosclerosis development entry in series [1] (wild-type and SR knockout mice) is listed as “reduces”. The “monocyte adhesion to TNFα-treated endothelial cells” value in series [2] was “does not inhibit”. Also, in the series on ApoE-/- mice, the “atherosclerosis (ORO positive area, LCA)” value was “inhibited atherosclerosis; also recorded: attenuates”. For the same compound, in series [3], the “DiI-LDL uptake by F4/80+ macrophages in atherosclerotic arteries” value was “substantially inhibited”.
